According to PMC5300203, “O-prenylated 3-carboxycoumarins as a novel class of 15-LOX-1 inhibitors” (PLoS ONE, 2017):
Read-outs that look alike come from different tables or passages of the source.

How the values were obtained:
human 15-LOX-1 = target: T1, human 15-LOX-1 (Homo sapiens, UniProt P16050); test: Lipoxygenase inhibitory assessment (DMAB-MBTH peroxide method, linoleic acid substrate); format: biochemical
T1 construct: Human 15-LOX-1 was prepared from isolated human eosinophil based on the procedure reported by Sigal et al; from tissue; host or cells: eosinophils purified from blood of hypereosinophilic human donors; 100,000 g supernatant, 30% and 60% ammonium sulfate pellets
T1 sequence (P16050 1-662): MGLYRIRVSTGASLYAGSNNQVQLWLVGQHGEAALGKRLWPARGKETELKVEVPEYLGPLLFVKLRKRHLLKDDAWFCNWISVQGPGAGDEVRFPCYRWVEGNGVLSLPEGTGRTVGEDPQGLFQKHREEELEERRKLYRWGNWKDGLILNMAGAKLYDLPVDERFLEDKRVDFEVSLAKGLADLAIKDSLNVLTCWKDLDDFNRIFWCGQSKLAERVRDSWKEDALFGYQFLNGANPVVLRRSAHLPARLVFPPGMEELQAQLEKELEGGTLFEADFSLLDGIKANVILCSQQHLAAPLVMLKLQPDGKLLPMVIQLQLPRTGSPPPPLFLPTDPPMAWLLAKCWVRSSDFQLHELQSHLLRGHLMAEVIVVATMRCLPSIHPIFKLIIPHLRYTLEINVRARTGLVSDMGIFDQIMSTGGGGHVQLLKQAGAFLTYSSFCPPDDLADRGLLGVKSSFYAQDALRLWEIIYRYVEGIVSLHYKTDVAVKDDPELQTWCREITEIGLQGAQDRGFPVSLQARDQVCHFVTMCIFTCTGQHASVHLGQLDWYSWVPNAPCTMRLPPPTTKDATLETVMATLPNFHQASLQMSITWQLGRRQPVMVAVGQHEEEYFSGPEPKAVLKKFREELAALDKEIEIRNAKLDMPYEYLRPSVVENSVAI
Method: The inhibitory activity of the synthetic compounds against human 15-LOX-1 was determined utilizing modified catalytic oxidative coupling of 3-methyl-2-benzothiazolinone (MBTH) with 3-(dimethylamino)benzoic acid (DMAB) as reported in previous studies. In this method, the basis for the determination of lipoxygenase activity is the measurement of peroxide concentration. Human 15-LOX-1 was prepared from isolated human eosinophil based on the procedure reported by Sigal et al. […] Because of the instability of the purified 15-LOX-1, the crude form of the enzyme was utilized. Eosinophils from blood of hypereosinophilic donors (8–11% eosinophils) were purified to more than 85% through “hypotonic lysis and centrifugation” method reported by Samoszuk.
Linoleic acid and two assay solutions (A and B) were prepared in advance.
Solution A was 50 mM DMAB in an l00 mM phosphate buffer (pH 7.0). Solution B was a mixture of l0 mM MBTH (3 mL), hemoglobin (5 mg/mL, 3 mL) in 50 mM phosphate buffer at pH 5.0 (25 ml). A linoleic acid solution was prepared by mixing 5.6 mg of linoleic acid (Sigma Aldrich, L1376) with 0.5 mL methanol and then diluted with KOH 100 mM to a final volume of 5 mL (4 mM).
In the standard assay, the sample in DMSO (12.5 μL), 15-LOX-1 (104 units/mL; 30 μL) and phosphate buffer, pH 7.0 (50 mM; 435 μL) were mixed in 48 well plate and perincubation was carried out for 10 min at 30°C. A control test was done with the same volume of ethanol. After the preincubation, linoleic acid solution (25 μL) was added to start the peroxidation reaction at 30°C, and, 10 min later, solution A (135 μL) and then solution B (65 μL) was added to start the color formation. Further, 3 min later, 100 μL of a 2% SDS solution was added to terminate the reaction. The absorbance at 598 nm was compared with the control test. These experiments were performed in triplicate. The data analysis was performed using GraphPad Prism 5.01.

[1] = human 15-LOX-1 from eosinophils (crude), linoleic acid, 30°C, ± SD (n = 3), read-out: IC50
[2] = human 15-LOX-1 from eosinophils (crude), linoleic acid, 30°C, ± SD (n = 3)

Cc1nc(N2CCN(C)CC2)nc2c1Sc1ccccc1N2 [Compound 4-MMPB, 4-methyl-2-(4-methylpiperazinyl)pyrimido[4,5-b]benzothiazine, reference compound]
IC50 (human 15-LOX-1; [1]): 16.8 ± 1.1 µM

C=CCOc1cccc2oc(=O)c(C(=O)O)cc12 [Compound 4a, 5-(allyloxy)-2-oxo-2H-chromene-3-carboxylic acid]
IC50 (human 15-LOX-1; [1]): 93.5 ± 7.6 µM | melting point: 115 to 117 °C

CC(C)=CCOc1cccc2oc(=O)c(C(=O)O)cc12 [Compound 4b, 5-(3-methylbut-2-enyloxy)-2-oxo-2H-chromene-3-carboxylic acid]
IC50 (human 15-LOX-1; [1]): 62.5 ± 5.9 µM | melting point: 85 to 86 °C

CC(C)=CCC/C(C)=C/COc1cccc2oc(=O)c(C(=O)O)cc12 [Compound 4c, 5-((E)-3,7-dimethylocta-2,6-dienyloxy)-2-oxo-2H-chromene-3-carboxylic acid]
IC50 (human 15-LOX-1; [1]): 4.8 ± 0.55 µM | melting point: 49 to 50 °C

CC(C)=CCC/C(C)=C/CC/C(C)=C/COc1cccc2oc(=O)c(C(=O)O)cc12 [Compound 4d, 5-((2E,6E)-3,7,11-trimethyldodeca-2,6,10-trienyloxy)-2-oxo-2H-chromene-3-carboxylic acid]
IC50 (human 15-LOX-1): 0.74 ± 0.05 µM | higher lipoxygenase inhibitory activity compared to the corresponding carboxylate-off analog (human 15-LOX-1; 3-carboxycoumarin vs farnesyloxycoumarin without carboxylic acid (4d vs 4d')): 2 folds | IC50 (human 15-LOX-1; [2]): 1.6 ± 0.08 µM | melting point: 39 to 40 °C

C=CCOc1ccc2oc(=O)c(C(=O)O)cc2c1 [Compound 8a, 6-(allyloxy)-2-oxo-2H-chromene-3-carboxylic acid]
IC50 (human 15-LOX-1; [1]): 296 ± 26.3 µM | melting point: 167 to 168 °C

CC(C)=CCOc1ccc2oc(=O)c(C(=O)O)cc2c1 [Compound 8b, 6-(3-methylbut-2-enyloxy)-2-oxo-2H-chromene-3-carboxylic acid]
IC50 (human 15-LOX-1; [1]): 227 ± 22.1 µM | melting point: 158 to 159 °C

CC(C)=CCC/C(C)=C/COc1ccc2oc(=O)c(C(=O)O)cc2c1 [Compound 8c, Ethyl 6-((E)-3,7-dimethylocta-2,6-dienyloxy)-2-oxo-2H-chromene-3-carboxylic acid]
IC50 (human 15-LOX-1; [1]): 21.5 ± 1.6 µM | melting point: 130 to 131 °C

CC(C)=CCC/C(C)=C/CC/C(C)=C/COc1ccc2oc(=O)c(C(=O)O)cc2c1 [Compound 8d, 6-((2E,6E)-3,7,11-trimethyldodeca-2,6,10-trienyloxy)-2-oxo-2H-chromene-3-carboxylic acid]
IC50 (human 15-LOX-1): 10.4 ± 2.1 µM | lower lipoxygenase inhibitory potency compared to the corresponding carboxylate-off analog (human 15-LOX-1; 3-carboxycoumarin vs farnesyloxycoumarin without carboxylic acid (d vs d')): 10 folds | IC50 (human 15-LOX-1; [2]): 1.0 ± 0.06 µM | melting point: 98 to 99 °C

C=CCOc1ccc2cc(C(=O)O)c(=O)oc2c1 [Compound 12a, 7-(allyloxy)-2-oxo-2H-chromene-3-carboxylic acid]
IC50 (human 15-LOX-1; [1]): 114 ± 10.1 µM | melting point: 205 to 207 °C

CC(C)=CCOc1ccc2cc(C(=O)O)c(=O)oc2c1 [Compound 12b, 7-(3-methylbut-2-enyloxy)-2-oxo-2H-chromene-3-carboxylic acid]
IC50 (human 15-LOX-1; [1]): 81.3 ± 5.3 µM | melting point: 147 to 148 °C

CC(C)=CCC/C(C)=C/COc1ccc2cc(C(=O)O)c(=O)oc2c1 [Compound 12c, 7-((E)-3,7-dimethylocta-2,6-dienyloxy)-2-oxo-2H-chromene-3-carboxylic acid]
IC50 (human 15-LOX-1; [1]): 12.1 ± 0.91 µM | melting point: 118 to 119 °C

CC(C)=CCC/C(C)=C/CC/C(C)=C/COc1ccc2cc(C(=O)O)c(=O)oc2c1 [Compound 12d, 7-((2E,6E)-3,7,11-trimethyldodeca-2,6,10-trienyloxy)-2-oxo-2H-chromene-3-carboxylic acid]
melting point: 87 to 90 °C

C=CCOc1cccc2cc(C(=O)O)c(=O)oc12 [Compound 18a, 8-(allyloxy)-2-oxo-2H-chromene-3-carboxylic acid]
IC50 (human 15-LOX-1; [1]): 293 ± 20.3 µM | melting point: 198 to 200 °C

CC(C)=CCOc1cccc2cc(C(=O)O)c(=O)oc12 [Compound 18b, 8-(3-methylbut-2-enyloxy)-2-oxo-2H-chromene-3-carboxylic acid]
IC50 (human 15-LOX-1; [1]): 263 ± 23 µM | melting point: 143 to 144 °C

CC(C)=CCC/C(C)=C/COc1cccc2cc(C(=O)O)c(=O)oc12 [Compound 18c, 8-((E)-3,7-dimethylocta-2,6-dienyloxy)-2-oxo-2H-chromene-3-carboxylic acid]
IC50 (human 15-LOX-1; [1]): 20.4 ± 2.2 µM | melting point: 100 to 101 °C
